Results published in patent US10980778B2, “Methods for treating multiple osteochondroma (MO)” (Clementia Pharmaceuticals Inc., priority 2016, dated 2021).
Read-outs that look alike come from different tables or passages of the source.

What was measured:
Fsp1-Ext1CKO mice [1] = experiment: Dose response of palovarotene to inhibit OC formation (P14 and P21 cohorts); format: in vivo; conditions: for EC50 at AUC0-24 hr (percent decrease in total OCs at rib and limb bones): extrapolated exposure
Method: Nonclinical pharmacology data: Fsp1-Ext1CKO mice were administered three doses of palovarotene (0.269 mg/kg [low], 0.882 mg/kg [mid], or 1.764 mg/kg [high]) for 28 consecutive days starting treatment at Day 14 postpartum (P14 cohort), or for 21 consecutive days starting at Day 21 postpartum (P21 cohort).
To determine the dose exposure response, exposure in this study was extrapolated based on pharmacokinetic data obtained from adult wild-type (WT) mice with the assumption that pharmacokinetics in adult WT mice are similar to juvenile Fsp1-Ext 1CKO mice.

Fsp1-Ext1CKO mice [2] = experiment: Crown-rump length in MO mouse model; format: in vivo
Method: Crown-rump length, defined as mouse body length from snout to base of the tail, was measured using a ruler in vehicle and palovarotene treated Fsp1-Ext1CKO mice and untreated wild-type (WT) littermates at baseline (Study Day 1) and, 3 and 4 weeks post initiation of palovarotene treatment (Study Day 21 and 28, respectively). As show in FIG. 3, palovarotene treatment had no effect on crown-rump length after 4 weeks of daily oral treatment in Fsp1-Ext1CKO mice compared to vehicle controls.

Fsp1-Ext1^CKO mice = experiment: Effect of palovarotene on osteochondroma (OC) formation, alcian blue whole-mount skeletal staining of rib bones; format: in vivo
Source text: Biallelic conditional knock-out (CKO) of Ext1 using a Cre transgene driven by an Fsp1 promotor) (Fsp1-Ext1^CKO in mice leads to the formation of phenotypes characteristic of MO. Fsp1 expression in developing bone is restricted to the perichondrium and periosteum. Perichondrium-targeted Ext1 deletion in mice causes osteochondromatogenesis in long bones, vertebrae and ribs. Fsp1-Ext1^CKO mice appear normal at birth, present mild bone deformity by P (postnatal day) 28 and have normal life span. In these mice, bony protrusions consisting of bony tuberosities with a cartilage cap are first detectable after P14. These protrusions are consistent with the histological features of osteochondromas in human MO. By P28, all animals develop multiple osteochondromas that can be readily observed in whole-mount skeletal preparations. This phenotype supports the relevance of the Fsp1-Ext1^CKO mouse as a preclinical model of MO. It also mimics the findings observed in a previously developed mouse model of MO, the Col2a1-Ext1^CKO mice.
The therapeutic effect of palovarotene in MO was tested in the Fsp1-Ext1^CKO mouse model. The CKO mice were treated with palovarotene (1.05 mg/kg) or vehicle by oral gavage daily. Treatment was initiated on day 14 postpartum and continued daily for 4 weeks. The effect of palovarotene on the formation of osteochondromas (OCs) in the mouse model was evaluated using whole-mount skeletal preparation. At end of treatment, the mice were euthanized by CO2 inhalation and the carcasses were eviscerated and fixed in 95% ethanol overnight. The preparations were stained with alcian blue for 3 days, rinsed in 95% ethanol, and incubated in 2% KOH for 1-2 days. Stained preparations were cleaned in 20% glycerol/1% KOH for 14 days and transferred to 50% glycerol/50% ethanol for photography and storage. By examination under a dissecting microscope, an alcian blue-positive protrusion that was clearly distinguishable was considered as an OC. OCs were identified and counted in each of the 24 rib bones from each mouse.
The sum of these counts (total number of OCs at the rib bones) and the mean occurrence of response (number of rib bones showing no OCs vs. number of rib bones showing at least one OC) were reported for each treatment group.

[3] = Observed pharmacokinetic parameters, fixed and weight-based dosing regimen; format: in vivo, human; conditions: for AUC(0-t): human, in vivo, oral; for AUC Ratio (A/P) Mean (SD) / AUC Ratio (A/P) Median / AUC Ratio (A/P) Min / AUC Ratio (A/P) max: observed vs predicted
Method: Table 4 summarizes the pharmacokinetic parameters of mean and median AUC0-24 values for subjects receiving 2.5 mg and 5.0 mg equivalent doses of palovarotene. Skeletally mature subjects received fixed dose regimens, while the skeletally immature subjects <18 years old were dosed via weight adjusted equivalent doses.
One other parameter known to impact systemic exposure of palovarotene is food. For the clinical studies, all subjects are instructed to administer study medication at approximately the same time each day, and following a full meal, although the exact amount consumed is not recorded.

[4] = mean occurrence of 24 rib bones, 1.05 mg/kg daily × 28 days, p=0.0039 vs vehicle (Fisher's exact test)
[5] = PVO 2.5 mg Weight-Adjusted Equivalent
[6] = PVO 5 mg Weight-Adjusted Equivalent

For `CC1(C)CCC(C)(C)c2cc(Cn3cccn3)c(/C=C/c3ccc(C(=O)O)cc3)cc21` [Palovarotene, 4-[(1E)-2-[5,6,7,8-Tetrahydro-5,5,8,8-tetramethyl-3-(1H-pyrazol-1-ylmethyl)-2-naphthalenyl]-ethenyl]-benzoic acid], the “Occurrence of OCs” value (Fsp1-Ext1CKO mice [1]; 0.269, 0.882 or 1.764 mg/kg, 28 days from P14 or 21 days from P21, vs vehicle controls) was “inhibited the occurrence of OCs in a dose-dependent manner”, the “Efficacy P14 cohort compared to P21 cohort” value (Fsp1-Ext1CKO mice [1]; 28 days from P14 vs 21 days from P21) was “Greater efficacy was observed with earlier and longer dosing in the P14 cohort” and the “EC50 at AUC0-24 hr (percent decrease in total OCs at rib and limb bones)” value (Fsp1-Ext1CKO mice [1]; P14 cohort) was 57 to 62 ng·h/mL. The “EC50 at AUC0-24 hr (percent decrease in total OCs at rib and limb bones)” value (Fsp1-Ext1CKO mice [1]; P21 cohort) was 125 to 173 ng·h/mL, the “Effect on crown-rump length” value (Fsp1-Ext1CKO mice [2]; after 4 weeks of daily oral treatment, compared to vehicle controls) was “no effect” and the Long bone growth (Fsp1-Ext1CKO mice [2]; summary of the Examples) was “able to maintain long bone growth”. The “Normal bone growth in the animal” value (Fsp1-Ext1CKO mice [2]; summary of the Examples) was “did not interfere with normal bone growth”, the “Total number of OCs at the rib bones Mean (95% CI)” value (Fsp1-Ext1^CKO mice; 1.05 mg/kg daily × 28 days, oral gavage from day 14 postpartum, n=9, vehicle 147.3) was 28.33 (23.23-33.43) and the “Effect on total number of OCs per rib bone and formation of OCs” value (Fsp1-Ext1^CKO mice; 1.05 mg/kg daily, 4 weeks, vs vehicle) was “reduced the total number of OCs per rib bone and prevent the formation of OCs”. For the same compound, the “Number of rib bones showing at least one OC” value (Fsp1-Ext1^CKO mice; [4]) was 16, the “Number of rib bones showing no OC” value (Fsp1-Ext1^CKO mice; [4]) was 8 and the Cartilage hyperplasia (Fsp1-Ext1^CKO mice; summary of the Examples) was “reduced cartilage hyperplasia”. The “Number and size of osteochondromas observed” value (Fsp1-Ext1^CKO mice; summary of the Examples) was “reduced the number and size of osteochondromas observed”, the “Observed exposures using weight based dosing compared with fixed dosing” value ([3]; 2.5 mg and 5.0 mg equivalent doses, few subjects in 2.5 mg group) was “tended to be lower than fixed dosing” and the AUC(0-t) ([3]; 2.5 mg, PVO 2.5 mg Fixed Dose, N=4, read-out: AUC0-24 h Mean (SD)) was 176 ng·h/mL. For the same compound, the AUC(0-t) ([3]; 2.5 mg, PVO 2.5 mg Fixed Dose, N=4, read-out: AUC0-24 h Median) was 149 ng·h/mL, the AUC(0-t) ([3]; 2.5 mg, PVO 2.5 mg Fixed Dose, N=4, read-out: AUC0-24 h Min) was 107 ng·h/mL and the AUC(0-t) ([3]; 2.5 mg, PVO 2.5 mg Fixed Dose, N=4, read-out: AUC0-24 h max) was 31 ng·h/mL. The AUC(0-t) ([3]; 2.5 mg, PVO 2.5 mg Weight-Adjusted Equivalent, N=3, read-out: AUC0-24 h Mean (SD)) was 98 ng·h/mL, the AUC(0-t) ([3]; 2.5 mg, PVO 2.5 mg Weight-Adjusted Equivalent, N=3, read-out: AUC0-24 h Median) was 78 ng·h/mL and the AUC(0-t) ([3]; 2.5 mg, PVO 2.5 mg Weight-Adjusted Equivalent, N=3, read-out: AUC0-24 h Min) was 37 ng·h/mL. The AUC(0-t) ([3]; 2.5 mg, PVO 2.5 mg Weight-Adjusted Equivalent, N=3, read-out: AUC0-24 h max) was 179 ng·h/mL, the AUC(0-t) ([3]; 5 mg, PVO 5 mg Fixed Dose, N=15, read-out: AUC0-24 h Mean (SD)) was 347 ng·h/mL and the AUC(0-t) ([3]; 5 mg, PVO 5 mg Fixed Dose, N=15, read-out: AUC0-24 h Median) was 320 ng·h/mL. The AUC(0-t) ([3]; 5 mg, PVO 5 mg Fixed Dose, N=15, read-out: AUC0-24 h Min) was 144 ng·h/mL, the AUC(0-t) ([3]; 5 mg, PVO 5 mg Fixed Dose, N=15, read-out: AUC0-24 h max) was 667 ng·h/mL and the AUC(0-t) ([3]; 5 mg, PVO 5 mg Weight-Adjusted Equivalent, N=6, read-out: AUC0-24 h Mean (SD)) was 249 ng·h/mL. The AUC(0-t) ([3]; 5 mg, PVO 5 mg Weight-Adjusted Equivalent, N=6, read-out: AUC0-24 h Median) was 218 ng·h/mL, the AUC(0-t) ([3]; 5 mg, PVO 5 mg Weight-Adjusted Equivalent, N=6, read-out: AUC0-24 h Min) was 139 ng·h/mL and the AUC(0-t) ([3]; 5 mg, PVO 5 mg Weight-Adjusted Equivalent, N=6, read-out: AUC0-24 h max) was 363 ng·h/mL. For the same compound, the “AUC Ratio (A/P) Mean (SD)” value ([3]; PVO 2.5 mg Fixed Dose) was 1.1 (0.7), the “AUC Ratio (A/P) Median” value ([3]; PVO 2.5 mg Fixed Dose) was 0.9 and the AUC Ratio (A/P) Min ([3]; PVO 2.5 mg Fixed Dose) was 0.6. For the same compound, the AUC Ratio (A/P) max ([3]; PVO 2.5 mg Fixed Dose) was 2.1, the “AUC Ratio (A/P) Mean (SD)” value [3, 5] was 0.8 (0.6) and the “AUC Ratio (A/P) Median” value [3, 5] was 0.6. For the same compound, the “AUC Ratio (A/P) Min” value [3, 5] was 0.3, the “AUC Ratio (A/P) max” value [3, 5] was 1.4 and the “AUC Ratio (A/P) Mean (SD)” value ([3]; PVO 5 mg Fixed Dose) was 1.3 (0.7). For the same compound, the “AUC Ratio (A/P) Median” value ([3]; PVO 5 mg Fixed Dose) was 1.1, the “AUC Ratio (A/P) Min” value ([3]; PVO 5 mg Fixed Dose) was 0.6 and the “AUC Ratio (A/P) max” value ([3]; PVO 5 mg Fixed Dose) was 2.9. For the same compound, the “AUC Ratio (A/P) Mean (SD)” value [3, 6] was 1.0 (0.3), the “AUC Ratio (A/P) Median” value [3, 6] was 0.9 and the “AUC Ratio (A/P) Min” value [3, 6] was 0.5. For the same compound, the “AUC Ratio (A/P) max” value [3, 6] was 1.4 and the AUCA/P ratio ([3]; overall, observed vs predicted exposures) was ~1.
